According to US7579356B2, “Thia-tetraazaacenaphthylene kinase inhibitors” (Janssen Pharmaceutica NV, priority 2005, dated 2009):

How the values were obtained:
Assay type in all cases: biochemical
[1] = biological target: T1, EGFR (Homo sapiens, UniProt P00533); test: EGFR Kinase Assay; details: for IC50: GST-EGFR, ATP 5 μM; for inhibition at 2 µM: test concentration of 2 μM, compounds without an IC50, read-out: EGFR inhibition in percent
T1 construct: The intracellular portion of EGFR started at nucleotide 2189 (corresponding to amino acid 667) and ended at the termination codon; made in house; host or cells: Sf9 insect cells (baculovirus)
In short: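 Potency came from triplicate 16-point half-log titrations starting at 200 uM, with IC50 fitted from % inhibition against log concentration, or % inhibition at 2 μM otherwise. Reaction: Sf9-made GST–EGFR cytoplasmic region (aa 667 onward), biotin-polyGluTyr, 5 μM ATP with 33P tracer, pH 8.0 Tris/Mg/vanadate/DTT, 30 °C for 1 h; captured on streptavidin Flashplates and counted.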

[2] = biological target: T2, c-Src kinase (human) (Homo sapiens, UniProt P12931); test: c-Src Kinase Assay; details: test concentration of 2 μM; multiple values are separate assay results
T2 construct: purchased Upstate Biotechnology, Lake Placid, N.Y
Experimental: A mixture of a 10× kinase buffer (80 mM MOPS at pH 7.0, 2 mM EDTA and 100 mM Magnesium Chloride), ATP (5 μM final from a 10 mM stock), a Cdc2 peptide KVEKIGEGTYGVVYK (100 μM final from a 2.5 mM stock), γ-^33P ATP (10 μCl/μL stock) and water (for a total of 20 μL/well) was added to each well of a Streptavidin Flashplate.
Test compound in 100% DMSO (0.5 μL) was added to the appropriate wells. Diluted c-Src kinase (human) (Accession Number SWISS-PROT P12931) (Upstate Biotechnology, Lake Placid, N.Y.) (diluted in a buffer consisting of 20 mM MOPS at pH 7.0, 1 mM EDTA, β-mercaptoethanol (0.1%), Brij-35 (0.01%), glycerol (5%), and 1 mg/mL bovine serum albumin) (2.5 μL) was added to the wells to initiate the reactions. The reaction plates were incubated at 30° C. for 40 min. The reaction was terminated by the addition of a 3% phosphoric acid solution (5 μL). The reaction product (10 μL) was spotted onto a P30 filtermat and washed for 5 minutes in phosphoric acid (75 mM). The wash sequence was repeated two more times, followed with one final wash in methanol. The plates were then dried, sealed and read on the TopCount scintillation counter after adding 30 μL scintillation fluid.
The c-Src inhibition values were derived using the percent inhibition formula provided in Example 164 and are shown as percent in Table 2 at a test concentration of 2 μM. For those compounds with an IC50, the IC50 value in μM is shown in parentheses. For compounds with multiple test values, each value represents a separate assay result.

[3] = biological target: T3, HER-2 (Homo sapiens, UniProt P04626); test: HER-2 Kinase Assay; details: for IC50: value in parentheses; for inhibition at 1 µM: test concentration of 1 μM
T3 construct: His6 with thrombin site (N); purchased Proqinase (Freiburg, Germany)
In short: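 Read-out was scintillation counting of 33P incorporated into biotinylated polyGluTyr captured on streptavidin plates. Reactions ran 1 h at 30 °C with GST-fused HER-2 residues 679–1255, 1 μM ATP, Mn2+ and Mg2+ at pH 7.5; data given as percent inhibition at 1 μM, with IC50 where determined.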

T2 sequence (P12931 whole entry): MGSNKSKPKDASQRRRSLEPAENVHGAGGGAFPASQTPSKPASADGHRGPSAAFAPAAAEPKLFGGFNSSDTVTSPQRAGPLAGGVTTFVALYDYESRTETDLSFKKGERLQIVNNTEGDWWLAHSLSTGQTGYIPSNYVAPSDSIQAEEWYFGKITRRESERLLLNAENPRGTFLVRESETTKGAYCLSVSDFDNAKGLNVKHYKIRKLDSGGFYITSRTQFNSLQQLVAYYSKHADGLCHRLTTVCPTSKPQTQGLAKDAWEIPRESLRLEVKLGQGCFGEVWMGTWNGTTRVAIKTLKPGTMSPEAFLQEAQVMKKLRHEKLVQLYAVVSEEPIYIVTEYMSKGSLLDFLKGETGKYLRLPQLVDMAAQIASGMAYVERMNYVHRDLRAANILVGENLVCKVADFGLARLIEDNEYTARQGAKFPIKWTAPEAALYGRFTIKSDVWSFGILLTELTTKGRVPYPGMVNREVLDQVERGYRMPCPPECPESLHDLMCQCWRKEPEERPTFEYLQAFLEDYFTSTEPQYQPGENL
T3 sequence (P04626 679-1255): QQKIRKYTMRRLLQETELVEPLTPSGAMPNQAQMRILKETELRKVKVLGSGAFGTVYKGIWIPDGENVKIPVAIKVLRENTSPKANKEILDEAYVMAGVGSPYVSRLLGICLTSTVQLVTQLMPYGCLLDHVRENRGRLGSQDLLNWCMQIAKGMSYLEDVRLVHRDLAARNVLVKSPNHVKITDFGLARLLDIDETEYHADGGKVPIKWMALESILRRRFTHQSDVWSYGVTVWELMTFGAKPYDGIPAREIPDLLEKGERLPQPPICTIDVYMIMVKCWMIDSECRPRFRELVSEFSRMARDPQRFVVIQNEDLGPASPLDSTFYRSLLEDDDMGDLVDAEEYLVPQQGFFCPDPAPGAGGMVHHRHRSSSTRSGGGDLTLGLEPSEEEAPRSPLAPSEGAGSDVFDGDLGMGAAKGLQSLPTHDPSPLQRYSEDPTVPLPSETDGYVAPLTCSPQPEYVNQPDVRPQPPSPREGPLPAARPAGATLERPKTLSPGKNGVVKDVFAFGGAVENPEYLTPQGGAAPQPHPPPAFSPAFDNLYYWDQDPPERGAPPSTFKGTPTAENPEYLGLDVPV
T1 sequence (P00533 669-1210 limits assumed): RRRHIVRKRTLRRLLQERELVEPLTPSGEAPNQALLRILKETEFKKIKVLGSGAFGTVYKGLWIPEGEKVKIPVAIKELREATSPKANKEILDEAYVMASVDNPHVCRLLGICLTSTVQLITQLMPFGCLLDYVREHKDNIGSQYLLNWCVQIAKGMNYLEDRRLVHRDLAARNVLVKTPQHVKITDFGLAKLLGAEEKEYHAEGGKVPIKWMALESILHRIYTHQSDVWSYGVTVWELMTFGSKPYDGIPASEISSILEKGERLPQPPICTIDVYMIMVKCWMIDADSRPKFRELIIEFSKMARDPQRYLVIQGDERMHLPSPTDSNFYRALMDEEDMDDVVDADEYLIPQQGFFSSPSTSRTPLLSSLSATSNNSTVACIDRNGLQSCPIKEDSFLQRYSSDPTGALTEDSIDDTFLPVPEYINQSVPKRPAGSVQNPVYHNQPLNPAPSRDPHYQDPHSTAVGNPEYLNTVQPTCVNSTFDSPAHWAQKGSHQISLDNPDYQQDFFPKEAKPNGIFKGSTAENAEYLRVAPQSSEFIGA

Compound | IC50 [1] [nM] | inhibition at 2 µM [2] [%] | IC50 [3] [nM] | inhibition at 2 µM [1] [%] | inhibition at 1 µM [3] [%]
CN1CCN(Cc2ccc(NC(=O)c3sc4ncnc5c4c3NC(=O)N5c3ccc(Br)cc3F)cc2)CC1 [Cpd 70, 5-(4-bromo-2-fluoro-phenyl)-4-oxo-4,5-dihydro-3H-1-thia-3,5,6,8-tetraaza-acenaphthylene-2-carboxylic acid [4-(4-methyl-piperazin-1-ylmethyl)-phenyl]-amide] | 330 | 43 | 1020 | – | –
O=C(Nc1ccc(NCCCN2CCOCC2)nc1)c1sc2ncnc3c2c1NC(=O)N3c1ccc(Br)cc1F [Cpd 71, 5-(4-bromo-2-fluoro-phenyl)-4-oxo-4,5-dihydro-3H-1-thia-3,5,6,8-tetraaza-acenaphthylene-2-carboxylic acid [6-(3-morpholin-4-yl-propylamino)-pyridin-3-yl]-amide] | 850 | 44 | 1760 | – | –
COc1ccc(NC(=O)c2sc3ncnc4c3c2NC(=O)N4c2cc(Cl)ccc2OC)cc1OC [Cpd 73, 5-(5-chloro-2-methoxy-phenyl)-4-oxo-4,5-dihydro-3H-1-thia-3,5,6,8-tetraaza-acenaphthylene-2-carboxylic acid (3,4-dimethoxy-phenyl)-amide] | – | -17 | – | 51 | -14
Cc1ccc(-n2nc(C(C)(C)C)cc2N2C(=O)Nc3c(C(=O)Nc4ccc(CN5CCOCC5)cc4)sc4ncnc2c34)cc1 [Cpd 76, 5-(5-tert-butyl-2-p-tolyl-2H-pyrazol-3-yl)-4-oxo-4,5-dihydro-3H-1-thia-3,5,6,8-tetraaza-acenaphthylene-2-carboxylic acid (4-morpholin-4-ylmethyl-phenyl)-amide] | – | 43 | – | 7 | -11

Second part, the molecule after the results:

IC50 [1] [nM] | inhibition at 2 µM [2] [%] | IC50 [3] [nM] | inhibition at 2 µM [1] [%] | inhibition at 1 µM [3] [%] | Compound
– | 43 | > 10000 | 30 | – | COc1cc(N2C(=O)Nc3c(C(=O)Nc4ccc(OC)c(OC)c4)sc4ncnc2c34)ccc1Br [Cpd 82, 5-(4-bromo-3-methoxy-phenyl)-4-oxo-4,5-dihydro-3H-1-thia-3,5,6,8-tetraaza-acenaphthylene-2-carboxylic acid (3,4-dimethoxy-phenyl)-amide]
– | 44 | > 10000 | -2 | – | COc1cc(N2C(=O)Nc3c(C(=O)N(C)C)sc4ncnc2c34)ccc1Br [Cpd 83, 5-(4-bromo-3-methoxy-phenyl)-4-oxo-4,5-dihydro-3H-1-thia-3,5,6,8-tetraaza-acenaphthylene-2-carboxylic acid dimethylamide]
– | -17 | 4380 | 36 | – | COc1cc(N2C(=O)Nc3c(C(=O)Nc4ccc(CN5CCN(C)CC5)cc4)sc4ncnc2c34)ccc1Br [Cpd 85, 5-(4-bromo-3-methoxy-phenyl)-4-oxo-4,5-dihydro-3H-1-thia-3,5,6,8-tetraaza-acenaphthylene-2-carboxylic acid [4-(4-methyl-piperazin-1-ylmethyl)-phenyl]-amide]
– | 43 | – | – | – | COc1ccc(Cl)c(N2C(=O)Nc3c(C(=O)Nc4ccc(OCCN5CCCCC5)c(OC)c4)sc4ncnc2c34)c1 [Cpd 88, 5-(2-chloro-5-methoxy-phenyl)-4-oxo-4,5-dihydro-3H-1-thia-3,5,6,8-tetraaza-acenaphthylene-2-carboxylic acid [3-methoxy-4-(2-piperidin-1-yl-ethoxy)-phenyl]-amide]
27 | -9 | 915 | – | 60 | COc1ccc(NC(=O)c2sc3ncnc4c3c2NC(=O)N4c2ccc(Oc3ccccc3)cc2)cc1OC [Cpd 99, 4-oxo-5-(4-phenoxy-phenyl)-4,5-dihydro-3H-1-thia-3,5,6,8-tetraaza-acenaphthylene-2-carboxylic acid (3,4-dimethoxy-phenyl)-amide]
